Patent US20150182527A1, “COMPOSITIONS, DEVICES AND METHODS OF TREATING INFECTIONS” (COOK MEDICAL TECHNOLOGIES LLC, priority 2014, published 2015)

Legend:
C. albicans #ATCC 10231 = test: Checkerboard microdilution MIC of azole and quaternary ammonium salt combinations; type: cell-based, Candida albicans; settings: for MIC: Candida albicans
From the text: (§1) Interactions between the selected azoles and quaternary ammonium salts (quats) were characterized via changes in minimum inhibitory concentration (MIC) using a checkerboard method in 96-well plates. This method is adapted from the microdilution method outlined in CLSI, M27-A3 (2008), —Reference Method for Broth Dilution Antifungal Susceptibility Testing of Yeasts; Approved Standard—3rd Edition.
(§2) Briefly, X and Y axes were established on the plates to serve as MIC controls for the compounds acting individually. Two-compound interactions were evaluated at the X-Y axis intersection of the two single-drug concentration axes.
(§3) Frozen concentrated stock compound solutions were used as the starting point in making the dilution series. […] One-quarter of the final well volume of the 4× stock was added to the appropriate wells. For wells with a second compound, one-quarter of the final well volume of the second compound was also added. An equivalent volume of culture media was added to wells in which only a single compound was tested.
(§4) Final well volume was either 100 μl or 200 μl depending on assay run. After addition of the 4× stocks and/or media, one-half of the final well volume of 5×10^3 CFU/mL yeast inoculum was added to each test well. Yeast inoculums were made from a 0.5 McFarland-matched culture that had been growing for 4-5 hours at 37° C. in trypticase soy broth (TSB). Each assay plate also included inoculum-only growth control wells (half the final well volume of inoculum plus the other half culture media) and culture media-only control wells. The inoculated plates were cultured aerobically in a humidified 36° C. room air incubator for 18 hours or 24 hours (±1 hour), depending on assay run, at which time growth was scored. The scored plates were then returned to the incubator for an additional 24 hours (±1 hour) of culturing and scored a second time (at 42 or 48 hours total culturing time).
(§5) Unless stated otherwise, yeast growth was scored using the subjective five tier numerical score (NS) scale established in CLSI M27-A3: 4=no reduction in growth relative to control, 3=slight reduction in growth (-25% reduction), 2=prominent decrease in growth (˜50% reduction), 1=slightly hazy growth (-75% reduction), 0 =no visible growth. Growth is scored relative to the on-plate inoculum control.
(§6) The checkerboard plate data was utilized to derive a fractional inhibitory concentration index (FICI) value that scores the interaction between compounds on a three category interaction scale: FICI <0.5 indicates synergy, FICI 0.5-4 indicates no interaction, and FICI >4 indicates antagonism. The FICI equation is: […]

C. glabrata # ATCC 2950 = test: as above; type: cell-based, Candida glabrata; settings: for MIC: Nakaseomyces glabratus, ATCC2950, fluconazole alone or its concentration in the combination
From the text: as §1, §2, §3, §4, §5, §6

[1] = TSB media, 48 hours post inoculation, benzalkonium-Cl alone or its concentration in the combination

OC(Cn1cncn1)(Cn1cncn1)c1ccc(F)cc1F [Fluconazole, fluconazole]
MIC (C. albicans #ATCC 10231; ATCC10231, 48 h, RPMI media, 48 hours post inoculation, fluconazole alone or its concentration in the combination): 128 µg/mL
MIC (C. albicans #ATCC 10231; ATCC10231, TSB media, 42 hours post inoculation, NS≦2 is efficacious, fluconazole alone or its concentration in the combination): 256 µg/mL
MIC (C. albicans #ATCC 10231; ATCC10231, TSB media, 48 hours post inoculation, fluconazole alone or its concentration in the combination with benzalkonium-Cl): 64 µg/mL
MIC (C. glabrata # ATCC 2950; RPMI media, 48 hours post inoculation): 16 µg/mL
MIC (C. glabrata # ATCC 2950; TSB media, 42 hours post inoculation, NS≦2 is efficacious): 16 µg/mL
Fluconazole MIC (C. glabrata # ATCC 2950; TSB media, 48 hours post inoculation, fluconazole alone or its concentration in the combination with benzalkonium-Cl): 16 µg/mL

benzalkonium chloride [Benzalkonium-Cl]
Benzalkonium-Cl MIC (C. albicans #ATCC 10231; [1]): 3.8 µg/mL
Benzalkonium-Cl MIC (C. glabrata # ATCC 2950; [1]): 1.9 µg/mL
